In data set [1] the target is T1, human insulin receptor kinase (Homo sapiens, UniProt P06213).
T1 construct: from tissue; host or cells: human placenta (Triton X-100 solubilized membranes; wheat germ agglutinin and insulin-Sepharose chromatography)
Kind of data set: Kinase assay: phosphorylation of exogenous src-related peptide by purified insulin receptor. Type of data set: biochemical. Particulars: for activation of the insulin receptor kinase over the control: 1 μM basic protein or polyamine, preincubated 25° C. 1 hour, FIG. 1; for reactivation of receptor preparations that lost kinase activity or insulin dependency: aged preparations stored at -70° C.; for concentrations at which kinase activity is stimulated: dose response. Here is the method:
The substrate used is a synthetic peptide (src-related peptide) which resembles the amino acid sequence around the site of phosphorylation of the tyrosine residue in the Rous sarcoma virus transforming protein, pp60^src, with the sequence ([…], Casnellie, J. E., et al., Proc. Natl. Acad. Sci. USA 79:282 (1982).
The phosphorylation assays were carried out at 25° C. for 40 minutes in 30 ul of 50 mM Tris-HCl buffer (pH 7.4) containing 1 mM of the src-related peptide, 2 mM MnCl2, 15 mM MgCl2, 0.1% Triton X-100, and 40 μM [γ-^32 ]ATP (12,000 cpm/pmole). The reaction was terminated by adding 50 μl of 5% trichloroacetic acid (TCA) and 20 μl of bovine serum albumin (BSA) (10 mg/ml), the resulting solution was then incubated at 0° C. for 30 minutes, and the proteins were precipitated by centrifugation. Aliquots (35 μl) of the resulting supernatant were spotted on phosphocellulose paper (Whatman, P-81). The papers were extensively washed in 75 mM phosphoric acid. Duplicates of the papers were prepared from each reaction mixture and ^32 P incorporated into the src-related peptide was counted using a liquid scintillation counter.

The next data set has as its system insulin receptor kinase. Particulars: literature, cited from earlier work.
Data set [2] relates to β subunit of the insulin receptor and calmodulin. Particulars: rat hepatocyte insulin receptor preparations, absence of insulin; literature; cited from earlier work.
Data set [3] deals with T2, insulin receptor β subunit (Homo sapiens, UniProt P06213).
T2 construct: from tissue; host or cells: human placenta (Triton X-100 solubilized membranes; wheat germ agglutinin and insulin-Sepharose chromatography)
Nature of the data set: Phosphorylation (autophosphorylation) of insulin receptor subunits, SDS-PAGE and autoradiography. Type of data set: biochemical. The protocol:
The β subunit of the purified receptor was phosphorylated in the same manner as described above for the exogenous substrate phosphorylation. The reaction was terminated by adding 3-times concentrated Laemmli's sample buffer followed by boiling for 5 minutes. SDS-polyacrylamide gel electrophoresis was then performed under reducing conditions as described by Laemmli, U. K., Nature 227:680 (1970). The gels were stained with silver, dried, and autoradiographed.
After the kinase reaction was terminated by adding TCA and BSA as described in the above procedures, the proteins containing the insulin receptor were precipitated by centrifugation. The precipitated proteins were then subjected to SDS polyacrylamide gel electrophoresis (7.5% gel) under reducing conditions. The gels were stained with silver, dried, and autoradiographed for 30 hours using a Kodak XAR-5 film and an intensifying screen.
The insulin receptor was then phosphorylated according to the procedures described above. After the phosphorylation, the receptors were analyzed by SDS polyacrylamide gel electrophoresis (10% gel) under non-reducing conditions. The gel was dried and autoradiographed for 45 minutes at -70° C. by exposing the gel to a Kodak XAR-5 film with an intensifying screen.

Data set [4] deals with T3, β and α subunits of the insulin receptor (Homo sapiens, UniProt P06213).
T3 construct: from tissue; host or cells: human placenta (Triton X-100 solubilized membranes; wheat germ agglutinin and insulin-Sepharose chromatography)
Kind of data set: Phosphoamino acid analysis of phosphorylated β and α subunits by paper electrophoresis. The format is biochemical. Here is the method:
Chem 254:1206 (1984), and hydrolyzing the peptides in 2N HCl for 2 hours at 110° C. The materials were then analyzed by paper electrophoresis (pH 3.5, 2000 V, 1 hour) and autoradiography.
Lanes 1-4 of FIG. 4B contain amounts of hydrolysates equal to 50% of the starting materials from the FIG. 4A gel. […] Other radioactive samples were electrophoresed together with these three phosphoamino acids. Ninhydrin spots for those are not shown. X indicates the origin of the samples.

Where two headings read alike, the source gives them in different places.

In the case of `O[C@H](CS)[C@H](O)CS` (racemic) [DTT, dithiothreitol, reference compound], the “Kinase activity” value is listed as 0.059 pmol/min in data set [1] (preincubation with 0.1 mM DTT) and 0.083 pmol/min in data set [1] (preincubation with 0.5 mM DTT). Besides, the fold induction at 100 µM in data set [1] (read-out: Kinase Activity -fold, preincubation with 0.1 mM DTT, relative to no addition) was 9.8. In addition, in data set [1] (read-out: Kinase Activity -fold, preincubation with 0.5 mM DTT, relative to no addition), the fold induction at 500 µM was 13.8. Moreover, the “activation of the insulin receptor kinase” value in the data set on insulin receptor kinase is given as “activate the insulin receptor kinase”; with insulin receptor kinase (listed as dithiothreitol (DTT)), “activates the insulin receptor kinase”.

For `OO` [H2 O2, hydrogen peroxide], the “activation of the insulin receptor kinase” value in the data set on insulin receptor kinase is reported as “activate the insulin receptor kinase”.

Consider `[Na+].[Na+].[Na+].[O]=[V]([O-])([O-])[O-]` [vanadate, sodium orthovanadate], for which, in the data set on insulin receptor kinase, the “activation of the insulin receptor kinase” value is “activate the insulin receptor kinase”.

Take concanavalin A: in the data set on insulin receptor kinase, the “activation of the insulin receptor kinase” value is recorded as “activate the insulin receptor kinase”.

For the compound histone Hf2b [reference compound], the “stimulation of phosphorylation of the β subunit of the insulin receptor (and calmodulin)” value (“stimulation … (and calmodulin)” for short) in data set [2] is “appeared to stimulate the phosphorylation of both the β subunit of the insulin receptor and calmodulin”.

For insulin, the “activation of the insulin receptor kinase” value in the data set on insulin receptor kinase is given as “activate the insulin receptor kinase”.

On to poly L-arginine, for which, in data set [1] (all concentrations examined, FIG. 2), the “effect on kinase activity in dose response” value is “inhibited the kinase activity of the receptor at any of the concentrations examined”. Besides, the “stimulation … (and calmodulin)” value in data set [2] is reported as “effective to stimulate the phosphorylation of the β subunit of the insulin receptor”.

For the compound poly L-lysine, the “kinetic analysis (Vmax, KM), Lineweaver-Burk plots” value in data set [1] (0.24 μM poly L-lysine, varying src-related peptide, FIGS. 6B, 6C) is reported as “increasing Vmax without significantly changing KM”. For the same compound, the “activation of the insulin receptor kinase over the control” value in data set [1] is reported as “approximately 5 fold”. Moreover, the “stimulative effect on kinase activity” value in data set [1] (100 μM poly L-lysine, FIG. 3A) is “can no longer be seen”. The “reactivation of receptor preparations that lost kinase activity or insulin dependency” value is listed as “can activate certain old insulin receptor preparations” in data set [1] and “able to restore the kinase activity of insulin receptor preparation that have lost some, but not all, kinase activity” in data set [1] (listed as Poly L-lysine). In data set [1] (FIG. 2), the “concentrations at which kinase activity is stimulated” value fell in the range of 0.1 to 1.0 µM. For the same compound, in data set [1] (optimum poly L-lysine concentrations vs 1 μM insulin, FIG. 3A), the “kinase activation compared with activation by insulin” value is “much greater than the kinase activation by insulin”. The “Kinase activity” value was found to be 0.234 pmol/min in data set [1] (preincubation with 0.24 μM PLL); 0.002 pmol/min in data set [1] (receptor preparation A, stored 36 Mo. at -70° C., 1 μM insulin or 0.24 μM poly L-lysine); 0.174 pmol/min in data set [1] (receptor preparation B, stored 28 Mo. at -70° C., 1 μM insulin or 0.24 μM poly L-lysine); 0.229 pmol/min in data set [1] (receptor preparation C, stored 15 Mo. at -70° C., 1 μM insulin or 0.24 μM poly L-lysine); 2.30 pmol/min in data set [1] (receptor preparation D, stored 3 Mo. at -70° C., 1 μM insulin or 0.24 μM poly L-lysine); 1.13 pmol/min in data set [1] (receptor preparation E, stored <3 Days, 1 μM insulin or 0.24 μM poly L-lysine). Also, the “Kinase Activity -fold” value in data set [1] (preincubation with 0.24 μM PLL, relative to no addition) is given as 39 fold. In addition, the “kinase activity after poly L-lysine treatment” value in data set [1] (receptor preparations older than 36 months (data not shown)) is given as “no kinase activity”. Also, the “phosphorylation of insulin receptor subunits” value in data set [3] (0.25 μM poly L-lysine, non-reducing SDS-PAGE, FIG. 4A lane 3) was “stimulates phosphorylation of α and β1 subunits in addition to the β subunit”. In data set [3] (0.001-10 μM poly L-lysine, with or without 1 μM insulin, FIG. 3B), the “stimulation of β subunit autophosphorylation compared with insulin” value is on record as “greater than that of insulin”. The “β subunit phosphorylation, radioactivity of hydrolysate” value in data set [4] (0.25 μM poly L-lysine, 20% of the original material, FIG. 4B lane 6) was found to be 1700 cpm; in data set [4] (1 μM insulin or 0.25 μM poly L-lysine, hydrolysate equal to 50% of starting material, FIG. 4B), 4400 cpm. Further, in data set [4] (0.25 μM poly L-lysine, hydrolysate equal to 50% of starting material, FIG. 4B lane 4), the “α subunit phosphorylation, radioactivity of hydrolysate” value worked out at 1000 cpm. Moreover, the “phosphoamino acid composition of phosphorylated β and α subunits” value in data set [4] (FIG. 4B) is listed as “tyrosine was found to be a major amino acid whose phosphorylation was stimulated”. Besides, the “stimulation … (and calmodulin)” value in data set [2] was “appeared to stimulate the phosphorylation of both the β subunit of the insulin receptor and calmodulin”.

As to poly L-ornithine, in data set [1], the “activation of the insulin receptor kinase over the control” value is “approximately 4 fold”. In addition, the “concentrations at which kinase activity is stimulated” value in data set [1] (FIG. 2) lay in the range of 0.1 to 1.0 µM. The “stimulation … (and calmodulin)” value in data set [2] is recorded as “effective to stimulate the phosphorylation of the β subunit of the insulin receptor”.

As to protamine sulfate, the “stimulatory effect on kinase activity relative to basal” value in data set [1] (10 μM, FIG. 2) is “approximately two-fold”. For the same compound, the “stimulation … (and calmodulin)” value in data set [2] is “appeared to stimulate the phosphorylation of both the β subunit of the insulin receptor and calmodulin”.
